Reference: patent US20230203081A1, “LINCOSAMIDE ANTIBIOTICS AND USES THEREOF” (President and Fellows of Harvard College, priority 2020, published 2023)
Values after ≈ are worked out from the molar mass of the structure shown. “Also recorded” adds a separate entry of the source. Where two headings read alike, the source gives them in different places.

Columns and labels:
E. faecalis VRE = assay: MIC (CLSI), first E. faecalis VRE line of Table 4; assay type: cell-based; details: Enterococcus faecalis, VRE
Protocol: (§1) Minimum inhibitory concentrations (MICs) were determined by broth microdilution method or agar dilution method following the Clinical and Laboratory Standards Institute guidelines. Standard bacterial strains were obtained from American Type Culture Collection (ATCC). Other bacterial strains were obtained from hospitals and commercial sources, so noted in Table 11. Before the start of the MIC experiment, standard and test compound stock solutions were prepared in dimethyl sulfoxide (DMSO, Aldrich D2650) at a stock concentration of 5,120 μg/mL. The compound concentration range typically employed for each experiment was 128-0.06 μg/mL (2.5% final DMSO concentration). Clindamycin was used as a comparator in all experiments and each experiment was performed in triplicate. Specialized procedures were employed for streptococcal and anaerobic strains. All other bacterial strains were sub-cultured on blood agar plates (tryptic soy agar with 5% sheep blood, Hardy Diagnostics) and incubated overnight at 35° C. Organisms were suspended in cation-adjusted Mueller-Hinton broth (CaMHB, BD 212322) and optical density was adjusted to 0.5 McFarland standard. Suspensions were further diluted to obtain a final inoculum of 5×10^5 CFU/mL for broth microdilution experiments.

[1] = Mouse pharmacokinetics i.v. and p.o.; design: species or system mice; details: in vivo, 60 mg/kg
[2] = Mammalian cell growth inhibition (CellTiter-Blue cell viability assay); assay type: cell-based, human; details: human, A549, K562, HCT116 and HepG2 cells; mammalian cells, 72 h
Protocol: (§2) Mammalian cell experiments: All compounds were dissolved in sterile DMSO to a stock concentration of 20 μM and aliquoted prior to freezing at −20° C. Aliquots were limited to a maximum of 3 freeze-thaw cycles. A549 (human pulmonary carcinoma; […]) cells were cultured in Dulbecco's Modified Eagle Medium (DMEM) supplemented with 10% fetal bovine serum. K562 (human chronic myelogenous leukemia; […]) cells were cultured in Iscove's Modification of DMEM (IMDM) media supplemented with 10% fetal bovine serum. HCT116 (human colorectal carcinoma; […]) cells were cultured in McCoy's 5a (Iwakata & Grace Modification) media supplemented with 10% fetal bovine serum. HepG2 (human hepatocellular carcinoma; […]) cells were cultured in Eagle's Minimum Essential Medium (EMEM) supplemented with 10% fetal bovine serum. All cell cultures were maintained in a 5% CO2 incubator at 37° C.
(§3) Growth inhibition was studied using the Promega CellTiter-Blue cell viability assay pursuant to the manufacturer's protocol. Briefly, cells were harvested, diluted, and mixed with the desired concentration of test compound. […] Plates were read on a SpectraMax i3 plate reader. GI50 values were determined by nonlinear regression using GraphPad Prism and represent the mean of at least three independent experiments.

[3] = system: mammalian cells (A549, K562, HCT116, HepG2); assay: as above; assay type: cell-based, human; details: cell-culture safety profiling; result in words
Protocol: as §2, §3

[4] = Plasma protein binding, species h; assay type: in vitro ADME; details: human
S. aureus (MRSA) = assay: Murine neutropenic thigh infection model; details: neutropenic mouse thigh, 24 h after a single intraperitoneal dose of 60 mg/kg
Protocol: (§5) Animal studies: Animal experiments were performed at the Biology Research Infrastructure Laboratory of Harvard University following IACUC-approved protocols. Animals were maintained in accordance with National Research Council guidelines. Pathogen-free, 5-6-week-old, female CD-1 mice weighing 22-26 grams were obtained from Charles River Laboratories, Inc. (Kingston, N.Y.). Animals were acclimated for a minimum of three days prior to start of the studies. Mice were caged as a group of four per cage, were housed at 21-23° C. with humidity ranging from 30-70%, were exposed to 12-hour light and dark cycles, and were supplied with food and water ad libitum.
(§6) Mouse thigh infection studies: Mice were rendered neutropenic by administering cyclophosphamide intraperitoneally, 150 mg/kg four days prior, and 100 mg/kg one day prior to infection. Bacterial strains were cultured overnight on blood agar plates at 35° C. in 5% CO2. […] Homogenates were serially diluted and plated on blood agar plates (each sample was plated in duplicate), and bacterial counts (log10 CFU/thigh) were determined after incubating the plates overnight at 35° C. in 5% CO2. Each experiment was repeated twice, and mean values were calculated (n=4 mice per time point).

S. pyogenes ATCC 19615 = assay: Murine neutropenic thigh infection model; details: neutropenic mouse thigh, S. pyogenes ATCC 19615, 24 h after a single intraperitoneal dose of 60 mg/kg
Protocol: as §5, §6

[5] = mouse, microsomes
[6] = Microsomal intrinsic clearance (Clint,mic), species h; assay type: in vitro ADME, human; design: unit not given here
E. coli MP-9 ΔTolC = assay: MIC (broth microdilution or agar dilution, CLSI); assay type: cell-based; details: Escherichia coli
Outline: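 Isolates other than streptococci and anaerobes, which had their own procedures, were grown overnight at 35° C on tryptic soy agar with 5% sheep blood. Suspensions were then diluted to a final inoculum of 5×10^5 CFU/mL in broth microdilution wells.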

HepG2 = assay: Mitochondrial ToxGlo assay; assay type: cell-based, human
Protocol: as §2
Mitochondrial toxicity assays were conducted using the Promega Mitochondrial ToxGlo assay, pursuant to the manufacturer's protocol.

E. coli HAV504 = assay: Murine neutropenic thigh infection model; assay type: in vivo, mice; details: neutropenic mouse thigh, E. coli HAV504 (FIG. 4C)
[7] = system: S. aureus ATCC 29213, S. aureus MRSA; assay: Spontaneous resistance in standard bacterial strains; assay type: cell-based; details: agar with 4×, 8×, 16× MIC, 3 days
Protocol: (§4) […]. Bacterial strains (S. aureus ATCC 29213, S. aureus MRSA, and E. faecalis ATCC 29212) were suspended in normal saline and optical density was adjusted to 1.50 at 600 nm. Bacterial counts were measured by serial dilution and plating. Bacterial inoculum (250 μL) was transferred to the media plate and was spread evenly. Plates were incubated at 37° C. for 3 days, and were observed daily for resistant colonies to emerge.

E. faecalis ATCC 29212 = assay: as above; assay type: cell-based; details: agar with 4×, 8×, 16× MIC, 3 days
Protocol: as §4

[8] = system: Enterococcus faecium and Enterococcus faecalis strains resistant to vancomycin, linezolid, azithromycin, ciprofloxacin, levofloxacin, gentamicin, and …; assay type: cell-based; details: panel of E. faecium and E. faecalis strains resistant to vancomycin, doxycycline
Protocol: as §1

[9] = Plasma protein binding, species m; assay type: in vitro ADME; details: mouse

SMILES: CCC[C@@H]1C[C@@H](C(=O)N[C@@H]([C@H]2O[C@H](SC)[C@H](O)[C@@H](O)[C@H]2O)[C@H](C)Cl)N(C)C1 [Clindamycin, clindamycin, reference compound]
- MIC (E. faecalis VRE): > 128 µg/mL

SMILES: CSC1O[C@H]([C@H](NC(=O)[C@H]2NC[C@@H]3C[C@H](CC(C)C)CCO[C@H]32)[C@H](C)Cl)C(O)[C@@H](O)[C@H]1O (stereo partly drawn) [FSA-513018b]
- AUC ([1]; iv): 6800 ± 1300 ng·h/mL
- Cmax ([1]; iv): 7900 ± 3000 ng/mL
- MRT ([1]; iv): 1.2 h
- clearance ([1]; iv): 148 mL/min/kg
- Vd ([1]; iv, read-out: Vss): 12.5 ± 0.4 L/kg
- AUC ([1]; po): 1600 ± 400 ng·h/mL
- Cmax ([1]; po): 1600 ± 700 ng/mL
- bioavailability ([1]; po): 24%
- GI50 at 72 h [2]: > 50 µM
- toxicity toward mammalian cells [3]: non-toxic
- fraction unbound [4]: 0.08
- reduction in bacterial burden vs clindamycin- and vehicle-treated controls (S. aureus (MRSA)): statistically significant reductions
- reduction in bacterial burden vs clindamycin- and vehicle-treated controls (S. pyogenes ATCC 19615): statistically significant reductions
- Clint,mic [5]: 21
- Clint,mic [6]: 34
- MIC (E. coli MP-9 ΔTolC): 0.5 µg/mL (≈ 1.01 µM)
- effect on membrane integrity (HepG2; HepG2, Mitochondrial ToxGlo): no effect
- effect on mitochondrial function (HepG2; HepG2, Mitochondrial ToxGlo (ATP production)): no effect
- efficacy in thigh infection model (E. coli HAV504): effective
- spontaneous resistance [7]: not observed; also recorded: No colonies were noted on any plate
- spontaneous resistance (E. faecalis ATCC 29212): not observed; also recorded: No colonies were noted on any plate
- MICs [8]: ≤ 2 µg/mL
- fraction unbound [9]: 0.05
